In patent US20240124408A1 (Sanofi, priority 2020, published 2024):
Counter-ions that a name gives are not always drawn. Like-named read-outs stand apart in the source and are kept apart here.

Experiments:
human TRPM8 [1] = target: T1, human TRPM8 (Homo sapiens, UniProt Q7Z2W7); experiment: In vitro human TRPM8 fluorescence calcium flux assay (recombinant CHO cells, Fluo4-AM, FDSS6000); assay type: cell-based; details: recombinant CHO cells expressing human TRPM8; menthol-related EC50, normalized to 100 μM menthol
T1 construct: expressed in transfected cells; host or cells: CHO (p658 mammalian expression vector)
T1 sequence (Q7Z2W7 whole entry): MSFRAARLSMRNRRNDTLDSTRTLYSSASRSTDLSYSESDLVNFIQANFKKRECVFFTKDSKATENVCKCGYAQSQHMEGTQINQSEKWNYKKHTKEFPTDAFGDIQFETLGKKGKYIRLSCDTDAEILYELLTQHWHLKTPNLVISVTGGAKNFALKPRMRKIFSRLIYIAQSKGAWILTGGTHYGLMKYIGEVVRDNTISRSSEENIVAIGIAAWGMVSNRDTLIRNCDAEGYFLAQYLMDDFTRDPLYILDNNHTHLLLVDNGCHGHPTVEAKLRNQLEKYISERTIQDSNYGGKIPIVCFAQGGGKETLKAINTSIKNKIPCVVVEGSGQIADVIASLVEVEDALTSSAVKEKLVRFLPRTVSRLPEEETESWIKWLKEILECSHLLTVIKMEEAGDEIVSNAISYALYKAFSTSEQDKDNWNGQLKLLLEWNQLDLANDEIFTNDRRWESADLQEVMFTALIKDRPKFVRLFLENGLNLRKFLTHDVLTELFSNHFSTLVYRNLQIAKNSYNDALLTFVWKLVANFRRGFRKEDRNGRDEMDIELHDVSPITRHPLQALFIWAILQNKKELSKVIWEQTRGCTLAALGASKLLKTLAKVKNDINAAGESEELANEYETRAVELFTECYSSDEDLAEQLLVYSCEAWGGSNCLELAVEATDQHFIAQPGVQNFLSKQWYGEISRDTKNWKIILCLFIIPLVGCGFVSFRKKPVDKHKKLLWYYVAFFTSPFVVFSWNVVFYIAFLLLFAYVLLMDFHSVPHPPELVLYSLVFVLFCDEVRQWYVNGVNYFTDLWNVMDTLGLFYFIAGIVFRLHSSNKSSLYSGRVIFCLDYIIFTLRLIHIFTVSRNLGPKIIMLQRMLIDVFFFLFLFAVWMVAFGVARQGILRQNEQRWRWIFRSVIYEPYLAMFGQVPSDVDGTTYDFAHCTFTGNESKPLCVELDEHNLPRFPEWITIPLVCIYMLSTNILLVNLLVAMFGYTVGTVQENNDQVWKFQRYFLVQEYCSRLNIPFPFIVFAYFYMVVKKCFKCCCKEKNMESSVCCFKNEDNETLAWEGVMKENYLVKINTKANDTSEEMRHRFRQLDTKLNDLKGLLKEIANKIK
Procedure, shortened: (§1)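 Agonist EC50 values come from sixteen-point dose responses normalized to the 100 μM menthol maximum, fitted sigmoidally. Calcium rise was followed for 3 min post-addition in recombinant CHO lines (human or pig TRPM8). Cells were dye-loaded with 2 μM Fluo4-AM, 1 h at room temperature, probenecid-containing HBSS.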

pig TRPM8 [2] = target: T2, pig TRPM8 (Sus scrofa, UniProt F1SM15); experiment: In vitro pig TRPM8 fluorescence calcium flux assay (recombinant CHO cells, Fluo4-AM, FDSS6000); assay type: cell-based; details: recombinant CHO cells expressing pig TRPM8; menthol-related EC50, normalized to 100 μM menthol
T2 construct: expressed in transfected cells; host or cells: CHO (pcDNA5/FRT/TO vector; hygromycin B and blasticidin selection)
T2 sequence (F1SM15 1-1104): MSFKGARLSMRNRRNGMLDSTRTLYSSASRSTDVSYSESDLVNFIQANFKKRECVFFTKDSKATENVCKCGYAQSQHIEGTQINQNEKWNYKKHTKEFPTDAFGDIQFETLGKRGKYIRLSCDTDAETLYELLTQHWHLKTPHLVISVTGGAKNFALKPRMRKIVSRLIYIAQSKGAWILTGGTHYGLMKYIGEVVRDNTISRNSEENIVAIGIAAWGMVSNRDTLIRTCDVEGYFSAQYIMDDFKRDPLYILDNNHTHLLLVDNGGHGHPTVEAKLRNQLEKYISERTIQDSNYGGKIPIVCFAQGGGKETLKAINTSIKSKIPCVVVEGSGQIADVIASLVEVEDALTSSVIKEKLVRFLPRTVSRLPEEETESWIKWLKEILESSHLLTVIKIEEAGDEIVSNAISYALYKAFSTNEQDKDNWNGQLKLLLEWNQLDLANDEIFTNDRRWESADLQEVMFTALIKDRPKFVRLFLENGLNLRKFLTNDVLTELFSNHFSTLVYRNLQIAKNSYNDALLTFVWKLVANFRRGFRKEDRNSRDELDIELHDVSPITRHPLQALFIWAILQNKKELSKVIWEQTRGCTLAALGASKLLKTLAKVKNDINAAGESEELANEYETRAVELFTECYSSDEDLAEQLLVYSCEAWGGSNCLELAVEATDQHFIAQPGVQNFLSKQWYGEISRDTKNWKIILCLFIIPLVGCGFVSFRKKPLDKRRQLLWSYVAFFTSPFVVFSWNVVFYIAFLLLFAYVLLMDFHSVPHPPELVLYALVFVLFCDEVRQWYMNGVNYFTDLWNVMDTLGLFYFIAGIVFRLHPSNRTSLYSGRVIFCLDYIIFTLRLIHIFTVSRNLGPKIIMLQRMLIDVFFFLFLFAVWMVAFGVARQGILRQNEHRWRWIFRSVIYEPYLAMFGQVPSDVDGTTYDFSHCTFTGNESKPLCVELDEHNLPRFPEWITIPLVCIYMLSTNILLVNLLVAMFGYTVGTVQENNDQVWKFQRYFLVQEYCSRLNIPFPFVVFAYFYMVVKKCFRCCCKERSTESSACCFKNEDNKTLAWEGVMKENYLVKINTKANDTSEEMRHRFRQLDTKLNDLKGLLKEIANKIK
Procedure, shortened: as §1

human TRPM8 [3] = target: T1, human TRPM8; experiment: In vitro human TRPM8 automated patch-clamp assay (SyncroPatch 384PE, CHO cells); assay type: cell-based; details: CHO cells expressing human TRPM8, 28° C.
Procedure, shortened: (§2)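 Whole-cell automated patch clamp on engineered CHO lines at 28 °C, held at −60 mV, with −80 to +80 mV ramps every 5 s; one compound concentration per well. Peak current minus pre-addition baseline was normalised to no-compound control and Emax, and EC50 was fitted; 200 μM menthol wells served as control.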

pig TRPM8 [4] = target: T2, pig TRPM8; experiment: In vitro pig TRPM8 automated patch-clamp assay (SyncroPatch 384PE, CHO cells); assay type: cell-based; details: CHO cells expressing pig TRPM8, 28° C.
Procedure, shortened: as §2

[5] = system: Male castrated German Landrace pigs; experiment: In vivo assay: enhancement of swallowing in anesthetized pigs (manometry with pressure probe in the mouth); details: Sus scrofa, anesthetized pig, dose per pig 10 mg, injected in 1 ml vehicle into the oral cavity
Procedure: For testing the efficacy of TRPM8 agonists for enhancing swallowing, experiment using the pig model can be conducted according to assay described below. The efficacy can be compared to a vehicle control.
Male castrated German Landrace pigs (weight range of 20 to 35 kg) were used. Anesthesia was induced by injecting 20 ml of a urethane solution (20 g/100 mL dissolved in saline) into an ear vein corresponding to a dose of around […]. Anesthesia was maintained by continuous infusion of 15-20 mL per hour of the urethane solution, which was infused into an epigastric vein, and additionally by infusion of Zoletil and Rompun (500 mg Zoletil is disssovled in 10 ml of Rompun 2%, then diluted 1:10 with saline and 3-5 mL per hour of this diluted solution. Bupivacain 0.5% JENAPHARM@ was injected for additional infiltration anesthesia. Anesthesia was monitored via pulsoximetry (ear) and regular reflex testing for pain. Body temperature was monitored and maintained by an infrared lamp.
Preparation of pigs: Swallowing responses were assessed by manometry with a pressure probe placed into the mouth of the pig. The pressure probe consisted of a plastic tube (diameter 3.3 mm) to which a small balloon was attached. The tube was advanced about 12-14 cm into the mouth related to the snout. The balloon was then inflated with air to yield a pressure of 20-30mbar (vehicle). Ideally a swallowing response with 1 ml of fluid raised this pressure by 20-50mbar which was then referred to as the swallowing pressure (the increment of this pre-set pressure in the inflated balloon after swallowing) to be further enhanced by an effective test drug.
The free end of the tube was connected to a differential pressure transducer MPX Type 399/2 (Hugo Sachs Elektronik-Harvard Apparatus) and a Hugo Sachs Plugsys-amplifier system. The biological signals were recorded by a Hugo Sachs Plugsys-amplifier system and continuously stored on a computer hard disk by an on line data acquisition and analysis system (Hem 4.2 Notocord Systems, Croissy-sur-Seine, France).
A second tube referred to as injection tube was placed dorsally to the manometer tube to enable the administration of the vehicle that induced the baseline swallowing activity, or of this same vehicle containing the test compound.
Induction and assessment of swallowing activity: 0.5h after anesthesia induction 1 ml of a fluid or the vehicle for the test drug was injected into the injection tube placed into the oral cavity. The number of swallows was counted and the highest-pressure increment was registered. Challenges with vehicle were repeated at intervals of 30 min until two consecutive vehicle challenges show an about equal swallowing response. The next challenge was the vehicle loaded with the test drug (otherwise same procedure). The efficacy of a compound to enhance swallowing as shown in Table 7 was expressed as the % increase in pressure and frequency of swallowing after administration of the compound compared to the pressure and frequency recorded for its vehicle administered just before.

[6] = frequency of swallowing compared with vehicle administered just before, read-out: % increase frequence vs vehicle
[7] = swallowing pressure compared with vehicle administered just before, read-out: % increase pressure vs vehicle

EC50 (human TRPM8 [1]) [µM] | EC50 (pig TRPM8 [2]) [µM] | EC50 (human TRPM8 [3]) [µM] | EC50 (pig TRPM8 [4]) [µM] | Compound | change in vivo at 10 mg [5, 6] [%] | change in vivo at 10 mg [5, 7] [%]
0.0017 | 0.0012 | 0.81 | 0.733 | CC(C)[C@@H]1CC[C@@H](C)C[C@@]1(O)C(=O)NC[C@@H](O)c1ccccc1 [Example 1, (1S,2S,5R)-1-hydroxy-N—((S)-2-hydroxy-2-phenylethyl)-2-isopropyl-5-methylcyclohexane-1-carboxamide] | 231 | 274
0.0028 | 0.0012 | 0.541 | 0.467 | CC(C)[C@@H]1CC[C@@H](C)C[C@@]1(O)C(=O)NCC(F)(F)c1ccccc1 [Example 4, (1S,2S,5R)—N-(2,2-difluoro-2-phenylethyl)-1-hydroxy-2-isopropyl-5-methylcyclohexane-1-carboxamide] | 417 | 221
0.001 | 0.002 | 0.15 | 0.782 | CC(C)[C@@H]1CC[C@@H](C)C[C@@]1(O)C(=O)NCCc1ccccc1C(=O)OCCN [Example 13, 2-aminoethyl 2-(2-((1S,2S,5R)-1-hydroxy-2-isopropyl-5-methylcyclohexane-1-carboxamido)ethyl) benzoate hydrochloride] | 100 | 53
0.0103 | 0.0067 | 2.72 | 3.3 | CC(C)[C@@H]1CC[C@@H](C)C[C@@]1(O)C(=O)NCCc1ccccc1CO [Example 14, (1S,2S,5R)-1-hydroxy-N-(2-(hydroxymethyl)phenethyl)-2-isopropyl-5-methylcyclohexane-1-carboxamide] | 62 | 73
0.0651 | 0.0563 | 5.5 | 5.29 | CC(C)[C@@H]1CC[C@@H](C)C[C@@]1(O)C(=O)NCCc1cccc(C(=O)OCCO)c1 [Example 21, 2-hydroxyethyl 3-(2-((1S,2S,5R)-1-hydroxy-2-isopropyl-5-methylcyclohexane-1-carboxamido)ethyl) benzoate] | 171 | 181
0.0252 | 0.0345 | 3.6 | 3.84 | CC(C)[C@@H]1CC[C@@H](C)C[C@@]1(O)C(=O)NCCc1ccccc1C(=O)OCCO [Example 22, 2-hydroxyethyl 2-(2-((1S,2S,5R)-1-hydroxy-2-isopropyl-5-methylcyclohexane-1-carboxamido)ethyl) benzoate] | 500 | 182
0.0145 | 0.0328 | 2.15 | 3.4 | CC(C)[C@@H]1CC[C@@H](C)C[C@@]1(O)C(=O)NCCc1ccccc1OC[C@@H](O)CO [Example 25, (1S,2S,5R)—N-(2-((S)-2,3-dihydroxypropoxy)phenethyl)-1-hydroxy-2-isopropyl-5-methylcyclohexane-1-carboxamide] | 173 | 168
0.0104 | 0.0093 | 2.08 | 3.15 | CC(C)[C@@H]1CC[C@@H](C)C[C@@]1(O)C(=O)NCC1(c2ccccc2)COC1 [Example 31, (1S,2S,5R)-1-hydroxy-2-isopropyl-5-methyl-N-((3-phenyloxetan-3-yl)methyl)cyclohexane-1-carboxamide] | 119 | 253
0.0025 | 0.0014 | 1.44 | 1.76 | CC(C)[C@@H]1CC[C@@H](C)C[C@@]1(O)C(=O)NCCc1cccc(O)c1 [Example 40, (1S,2S,5R)-1-hydroxy-N-(3-hydroxyphenethyl)-2-isopropyl-5-methylcyclohexane-1-carboxamide] | 62 | 393
0.067 | 0.0242 | 1.94 | 1.4 | CC(C)[C@@H]1CC[C@@H](C)C[C@@]1(O)C(=O)NCCc1cccc(C(N)=O)c1 [Example 49, 3-(2-((1S,2S,5R)-1-hydroxy-2-isopropyl-5-methylcyclohexane-1-carboxamido)ethyl) benzamide] | 300 | 133
0.0004 | 0.0004 | 0.14 | 0.071 | CC(C)[C@@H]1CC[C@@H](C)C[C@@]1(O)C(=O)NC[C@@H](N)c1ccccc1 [Example 50, (1S,2S,5R)—N-((2S)-amino-2-phenylethyl)-1-hydroxy-2-isopropyl-5-methylcyclohexane-1-carboxamide] | 100 | 63
0.0078 | 0.0045 | 3.03 | 0.823 | CC(C)[C@@H]1CC[C@@H](C)C[C@@]1(O)C(=O)NCCc1ccccc1 [Example 51, (1S,2S,5R)-1-hydroxy-2-isopropyl-5-methyl-N-phenethylcyclohexane-1-carboxamide] | 250 | 186
0.026 | 0.0243 | 1.3 | 0.864 | CC(C)[C@@H]1CC[C@@H](C)C[C@@]1(O)C(=O)NCCc1ccccc1CCO [Example 52, (1S,2S,5R)-1-hydroxy-N-(2-(2-hydroxyethyl)phenethyl)-2-isopropyl-5-methylcyclohexane-1-carboxamide] | 172 | 202
0.226 | 0.0911 | 5.65 | 8.73 | CC(C)OC(=O)CNC(=O)[C@]1(O)C[C@H](C)CC[C@H]1C(C)C [Example 54, isopropyl ((1S,2S,5R)-1-hydroxy-2-isopropyl-5-methylcyclohexane-1-carbonyl)glycinate] | 75 | 64
0.0026 | 0.0057 | 0.053 | 0.057 | CC(C)[C@@H]1CC[C@@H](C)C[C@@]1(O)C(=O)NC[C@@H](NC(=O)[C@H](C)N)c1ccccc1 [Example 63, (1S,2S,5R)—N—((S)-2-((S)-2-aminopropanamido)-2-phenylethyl)-1-hydroxy-2-isopropyl-5-methylcyclohexane-1-carboxamide] | 191 | 186
0.0402 | 0.082 | 1.8 | 3.97 | CC(C)[C@@H]1CC[C@@H](C)C[C@@]1(O)C(=O)NCCc1ccccc1OCCCO [Example 80, (1S,2S,5R)-1-hydroxy-N-(2-(3-hydroxypropoxy)phenethyl)-2-isopropyl-5-methylcyclohexane-1-carboxamide] | 91 | 86
0.211 | 0.073 |  | > 10 | COC(=O)c1ccc(CCNC(=O)[C@]2(O)C[C@H](C)CC[C@H]2C(C)C)cc1 [Example 108, methyl 4-(2-((1S,2S,5R)-1-hydroxy-2-isopropyl-5-methylcyclohexane-1-carboxamido)ethyl)benzoate] | 114 | 169
